Data: patent US8507472B2 (priority 2010, dated 2013)

system: Alternaria solani; experiment: Alternaria test (tomato)/protective; type: in vivo; settings: in vivo
Description: (§1) Solvent: 49 parts by weight of N,N-dimethylformamide
(§2) Emulsifier: 1 part by weight of alkylaryl polyglycol ether
To produce a suitable preparation of active compound, 1 part by weight of active compound is mixed with the stated amounts of solvent and emulsifier, and the concentrate is diluted with water to the desired concentration.
To test for protective activity, young tomato plants are sprayed with the active compound preparation at the stated application rate. 1 day after the treatment, the plants are inoculated with a spore suspension of Alternaria solani and then remain at 100% rel. humidity and 22° C. for 24 h. The plants then remain at 96% rel. atmospheric humidity and a temperature of 20° C.
(§3) Evaluation is carried out 7 days after the inoculation. 0% means an efficacy which corresponds to that of the control, whereas an efficacy of 100% means that no infection is observed.

In order of falling efficacy in %:
1. O=C(Cc1ccccc1)Nc1cc(-c2c(-c3ccc(F)cc3)nn3c2CCCCC3)ccn1 [Example 98]  90%
2. CC(=O)Nc1cc(-c2c(-c3ccc(F)cc3)nn3c2CCOC3)ccn1 [Example 106]  80%

system: Pyrenophora teres; experiment: Pyrenophora teres test (barley)/protective; type: in vivo; settings: in vivo
Description: as §1, §2
(§4) To produce a suitable preparation of active compounds, 1 part by weight of active compound is mixed with the stated amounts of solvent and emulsifier, and the concentrate is diluted with water to the desired concentration.
To test for protective activity, young barley plants are sprayed with the active compound preparation at the stated application rate. 1 day after the treatment, the plants are inoculated with an aqueous spore suspension of Pyrenophora teres and then remain at 100% rel. atmospheric humidity and 22° C. for 48 h. The plants are then placed in a greenhouse at 80% rel. atmospheric humidity and a temperature of 20° C.
Evaluation is carried out 7-9 days after the inoculation. 0% means an efficacy which corresponds to that of the control, whereas an efficacy of 100% means that no infection is observed.

In order of falling efficacy in %:
1. CC(=O)Nc1cc(-c2c(-c3ccc(F)cc3)nn3c2CCOC3)ccn1 [Example 106]  95%
2. O=C(Cc1ccccc1)Nc1cc(-c2c(-c3ccc(F)cc3)nn3c2CCCCC3)ccn1 [Example 98]  95%

system: Sphaerotheca fuliginea; experiment: Sphaerotheca test (cucumber)/protective; type: in vivo; settings: in vivo
Description: as §1, §2, §4
To test for protective activity, young cucumber plants are sprayed with the active compound preparation at the stated application rate. 1 day after the treatment, the plants are inoculated with a spore suspension of Sphaerotheca fuliginea. The plants are then placed in a greenhouse at 70% rel. atmospheric humidity and a temperature of 23° C.
as §3

In order of falling efficacy in %:
1. O=C(Cc1ccccc1)Nc1cc(-c2c(-c3ccc(F)cc3)nn3c2CCCCC3)ccn1 [Example 98]  90%
2. CC(=O)Nc1cc(-c2c(-c3ccc(F)cc3)nn3c2CCOC3)ccn1 [Example 106]  75%

system: not listed separately; experiment: log P determination by HPLC retention times (alkan-2-one calibration); settings: HCOOH; preparation examples in the text

In the case of `CC(Cl)CCC(=O)NN=C(c1ccccc1)c1ccccc1` (centres unmarked) [XXV-1, 4-Chloro-N′-(diphenylmethylene)pentane hydrazide], the “log P(HCOOH)” value is reported as 3.76.

same assay, conditions: log P(HCOOH), HCOOH; preparation examples in the text

In order of falling chromatographic logP:
1. Fc1ccc(-c2nn3c(c2I)CCCCC3)cc1 [VIII-2, 2-(4-Fluorophenyl)-3-iodo-5,6,7,8-tetrahydro-4H-pyrazolo[1,5-a]azepine]  4.35
2. CC1(C)OCCc2c(I)c(-c3ccc(F)cc3)nn21 [VIII-16, 2-(4-Fluorophenyl)-3-iodo-7,7-dimethyl-4,5-dihydropyrazolo[1,5-c][1,3]oxazine]  4.28
3. FC(F)(F)c1ccc(-c2nn3c(c2I)CCC3)cc1 [VIII-10, 2-[4-(Trifluoromethyl)phenyl]-3-iodo-5,6-dihydro-4H-pyrrolo[1,2-b]pyrazole]  4.13
4. FC(F)(F)c1cccc(-c2nn3c(c2I)CCC3)c1 [VIII-3, 2-[3-(Trifluoromethyl)phenyl]-3-iodo-5,6-dihydro-4H-pyrrolo[1,2-b]pyrazole]  4.11
5. O=C(C#CCCOCc1ccccc1)c1ccc(F)cc1 [XX-1, 5-(Benzyloxy)-1-(4-fluorophenyl)pent-2-yn-1-one]  3.89
6. CC1CCc2c(I)c(-c3ccc(F)cc3)nn21 (centres unmarked) [VIII-19, 2-(4-Fluorophenyl)-3-iodo-6-methyl-5,6-dihydro-4H-pyrrolo[1,2-b]pyrazole]  3.82
7. Fc1ccc(C#Cc2ccnc(Cl)c2)cc1 [II-6, 2-Chloro-4-[(4-fluorophenyl)ethynyl]pyridine]  3.8
8. CC1CCc2c(Br)c(-c3ccc(F)cc3)nn21 (centres unmarked) [VIII-20, 2-(4-Fluorophenyl)-3-bromo-6-methyl-5,6-dihydro-4H-pyrrolo[1,2-b]pyrazole]  3.77
9. Ic1c(-c2ccccc2)nn2c1CCCC2 [VIII-12, 2-(Phenyl)-3-iodo-4,5,6,7-tetrahydropyrazolo[1,5-a]pyridine]  3.55
10. Cc1ccc(-c2nn3c(c2I)CCC3)cc1 [VIII-7, 2-[4-Methylphenyl]-3-iodo-5,6-dihydro-4H-pyrrolo[1,2-b]pyrazole]  3.54
11. Ic1c(-c2cccs2)nn2c1CCCC2 [VIII-13, 2-(2-Thienyl)-3-iodo-4,5,6,7-tetrahydropyrazolo[1,5-a]pyridine]  3.45
12. Brc1c(-c2ccccc2)nn2c1CSCC2 [VIII-18, 3-Bromo-2-phenyl-6,7-dihydro-4H-pyrazolo[5,1-c][1,4]thiazine]  3.42
13. Ic1c(-c2ccsc2)nn2c1CCCC2 [VIII-14, 2-(3-Thienyl)-3-iodo-4,5,6,7-tetrahydropyrazolo[1,5-a]pyridine]  3.4
14. Fc1cccc(-c2nn3c(c2I)CCC3)c1 [VIII-11, 2-[3-Fluorophenyl]-3-iodo-5,6-dihydro-4H-pyrrolo[1,2-b]pyrazole]  3.32
15. Fc1ccc(-c2nn3c(c2I)CCC3)cc1 [VIII-6, 2-(4-Fluorophenyl)-3-iodo-5,6-dihydro-4H-pyrrolo[1,2-b]pyrazole]  3.3
16. FC(F)(F)c1cccc(-c2cc3n(n2)CCC3)c1 [VII-6, 2-[3-(Trifluoromethyl)phenyl]-5,6-dihydro-4H-pyrrolo[1,2-b]pyrazole]  3.25
17. FC(F)(F)c1ccc(-c2cc3n(n2)CCC3)cc1 [VII-9, 2-[4-(Trifluoromethyl)phenyl]-5,6-dihydro-4H-pyrrolo[1,2-b]pyrazole]  3.2
18. Ic1c(-c2ccccc2)nn2c1CCC2 [VIII-5, 2-(Phenyl)-3-iodo-5,6-dihydro-4H-pyrrolo[1,2-b]pyrazole]  3.09
19. Fc1ccc(-c2cc(CCOCc3ccccc3)[nH]n2)cc1 [XXI, 5-[2-(Benzyloxy)ethyl]-3-(4-fluorophenyl)-1H-pyrazole]  3.09
20. COc1ccc(-c2nn3c(c2I)CCC3)cc1 [VIII-9, 2-[4-(Methoxy)phenyl]-3-iodo-5,6-dihydro-4H-pyrrolo[1,2-b]pyrazole]  3.01
21. CC(CCC(=O)NN=C(c1ccccc1)c1ccccc1)OS(C)(=O)=O (centres unmarked) [5-[2-(diphenylmethylene)hydrazino]-5-oxopentan-2-yl methanesulphonate]  2.82
22. Fc1ccccc1-c1nn2c(c1Br)CCC2 [VIII-22, 3-Bromo-2-(2-fluorophenyl)-5,6-dihydro-4H-pyrrolo[1,2-b]pyrazole]  2.81
23. COC(=O)c1c(-c2ccc(F)cc2)nn2c1C(C)CC2 (centres unmarked) [XXX-2, Methyl 2-(4-fluorophenyl)-4-methyl-5,6-dihydro-4H-pyrrolo[1,2-b]pyrazole-3-carboxylate]  2.71
24. Cc1ccc(-c2cc3n(n2)CCC3)cc1 [VII-8, 2-[4-Methylphenyl]-5,6-dihydro-4H-pyrrolo[1,2-b]pyrazole]  2.64
25. CC1CCN(N=C(c2ccccc2)c2ccccc2)C1=O (centres unmarked) [XXV-3, 1-[(Diphenylmethylene)amino]-3-methylpyrrolidin-2-one]  2.62
26. c1ccc(-c2cc3n(n2)CCCC3)cc1 [VII-5, 2-(Phenyl)-4,5,6,7-tetrahydropyrazolo[1,5-a]pyridine]  2.57
27. CCOC(=O)c1c(-c2ccccc2F)nn2c1CCC2 [XXX-3, Ethyl 2-(2-fluorophenyl)-5,6-dihydro-4H-pyrrolo[1,2-b]pyrazole-3-carboxylate]  2.49
28. Fc1cccc(-c2cc3n(n2)CCC3)c1 [VII-10, 2-[3-Fluorophenyl]-5,6-dihydro-4H-pyrrolo[1,2-b]pyrazole]  2.46
29. Clc1ccc(C#Cc2ccncc2)cc1 [II-5, 4-{[4-Chlorophenyl]ethynyl}pyridine]  2.43
30. c1csc(-c2cc3n(n2)CCCC3)c1 [VII-11, 2-(2-Thienyl)-4,5,6,7-tetrahydropyrazolo[1,5-a]pyridine]  2.42
31. CCOC(=O)CC(=NN1C(=O)CCC1C)c1ccccc1F (centres unmarked) [XXVIII-3, Ethyl 3-(2-fluorophenyl)-3-[(2-methyl-5-oxopyrrolidin-1-yl)imino]propanoate]  2.34
32. c1cc(-c2cc3n(n2)CCCC3)cs1 [VII-12, 2-(3-Thienyl)-4,5,6,7-tetrahydropyrazolo[1,5-a]pyridine]  2.25
33. O=C1CCCN1N=C(c1ccccc1)c1ccccc1 [XXVI-2, 1-[(Diphenylmethylene)amino]pyrrolidin-2-one]  2.23
34. c1ccc(-c2cc3n(n2)CCC3)cc1 [VII-2, 2-(Phenyl)-5,6-dihydro-4H-pyrrolo[1,2-b]pyrazole]  2.19
35. COc1ccc(-c2cc3n(n2)CCC3)cc1 [VII-7, 2-[4-(Methoxy)phenyl]-5,6-dihydro-4H-pyrrolo[1,2-b]pyrazole]  2.17
36. COC(=O)CC(=NN1C(=O)CCC1C)c1ccc(F)cc1 (centres unmarked) [XXVIII-1, Methyl 3-(4-fluorophenyl)-3-[(2-methyl-5-oxopyrrolidin-1-yl)imino]propanoate]  2.13
37. COC(=O)CC(=NN1CCC(C)C1=O)c1ccc(F)cc1 (centres unmarked)  2.09
38. ClCc1cc(-c2ccccc2)n[nH]1 [XV-1, 5-(Chloromethyl)-3-phenyl-1H-pyrazole]  2.05
39. c1cc(-c2cc3n(n2)CCC3)cs1 [VII-13, 2-[3-Thienyl]-5,6-dihydro-4H-pyrrolo[1,2-b]pyrazole]  2.01
40. Fc1ccc(-c2cc3n(n2)CCOC3)cc1 [VIIa-1, 2-(4-Fluorophenyl)-6,7-dihydro-4H-pyrazolo[5,1-c][1,4]oxazine]  2.01
41. CC1CCc2c(C(=O)O)c(-c3ccccc3F)nn21 (centres unmarked) [XXXI-3, 2-(2-Fluorophenyl)-6-methyl-5,6-dihydro-4H-pyrrolo[1,2-b]pyrazole-3-carboxylic acid]  1.64
42. O=C(O)c1c(-c2ccccc2F)nn2c1CCC2 [XXXI-4, 2-(2-Fluorophenyl)-5,6-dihydro-4H-pyrrolo[1,2-b]pyrazole-3-carboxylic acid]  1.35
43. CC(C)(C)OC1Cc2c([O-])on[n+]2C1 (centres unmarked) [III-4, 5-tert-Butoxy-5,6-dihydro-4H-pyrrolo[1,2-c][1,2,3]oxadiazol-7-ium 3-olate]  1.34
44. [O-]c1on[n+]2c1CCCC2 [III-2, 4,5,6,7-Tetrahydro[1,2,3]oxadiazolo[3,4-a]pyridin-8-ium 3-olate]  0.59

same assay, conditions: pH 7, log P(pH7), pH7; preparation examples in the text

In order of falling chromatographic logP:
1. FC(F)(F)c1cccc(C#Cc2ccncc2)c1 [II-2, 4-{[3-(Trifluoromethyl)phenyl]ethynyl}pyridine]  3.5
2. Fc1ccc(C#Cc2ccncc2)cc1 [II-4, 4-{[4-Fluorophenyl]ethynyl}pyridine]  2.81
